# Laboratory results taken from patent US8263606B2 (Xenon Pharmaceuticals Inc., priority 2008, dated 2012).
# Assays:
# sodium channel = test: Guanidine influx assay (14C-guanidine radiotracer flux, in vitro); assay type: cell-based, human or rat; conditions: guanidine influx assay using a known cell line that expresses a sodium channel
# In short: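 Human or rat sodium channels stably expressed in endogenous or recombinant cells, plated ~100,000 cells/well for 20-24 h at 37 °C. Cells were treated with test agent in low-sodium choline HEPES saline plus aconitine and 14C-guanidine at ambient temperature, washed, and counted by scintillation; IC50 from 4-parameter logistic fit.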
# CYP3A4 = CYP3A4 (Homo sapiens, UniProt P08684); test: Cytochrome P450 (CYP450) Inhibition Assay, CYP3A4 (Vivid fluorescence, BOMCC substrate); conditions: human, P450 Baculosomes (recombinant CYP3A4), probe BOMCC (Vivid substrate)
# Chain of CYP3A4 (P08684 whole entry): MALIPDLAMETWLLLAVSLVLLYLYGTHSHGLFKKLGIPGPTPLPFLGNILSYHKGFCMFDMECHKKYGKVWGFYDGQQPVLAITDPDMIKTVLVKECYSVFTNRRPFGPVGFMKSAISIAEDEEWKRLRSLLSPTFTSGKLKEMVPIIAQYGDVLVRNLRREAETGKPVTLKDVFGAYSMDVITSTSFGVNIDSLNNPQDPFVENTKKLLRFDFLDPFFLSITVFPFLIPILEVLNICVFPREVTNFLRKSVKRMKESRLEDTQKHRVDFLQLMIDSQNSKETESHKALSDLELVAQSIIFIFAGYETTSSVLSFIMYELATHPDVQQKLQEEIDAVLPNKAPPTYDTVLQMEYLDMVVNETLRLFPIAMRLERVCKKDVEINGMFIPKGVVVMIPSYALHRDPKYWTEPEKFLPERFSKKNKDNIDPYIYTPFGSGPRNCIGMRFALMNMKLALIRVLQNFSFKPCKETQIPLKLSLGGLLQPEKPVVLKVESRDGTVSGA
SMILES,IC50 (sodium channel),melting point,inhibition at 10 µM (CYP3A4),IC50 (sodium channel; activity level class)
"Cl.O=C1N(C[C@H]2CCCO2)c2ccccc2C12COc1cc(O[C@@H]3CCNC3)ccc12 (stereo partly drawn) [Example 11.58, 6-[(3R)-pyrrolidin-3-yloxy]-1′-[(2R)-tetrahydrofuran-2-ylmethyl]spiro[1-benzofuran-3,3′-indol]-2′(1′H)-one hydrochloride]",1 to 10 µM,120 to 130 °C,< 50%,
"O=C1N(Cc2cncc(F)c2)c2ccccc2[C@]12COc1cc3c(cc12)OCCO3 [Example 8.19, (8S)-1′-[(5-fluoropyridin-3-yl)methyl]-2,3-dihydrospiro[furo[2,3-g][1,4]benzodioxine-8,3′-indol]-2′(1′H)-one]",,197 to 200 °C,< 50%,0.001 to 0.1 µM
"CN1C(=O)COc2cc3c(cc21)OCC31C(=O)Nc2ccccc21 (stereo not drawn) [Example 3.23, 4-methyl-4,7-dihydrospiro[benzofuro[5,6-b][1,4]oxazine-8,3′-indoline]-2′,3(2H)-dione]",,> 250 °C,< 50%,1 to 10 µM
"O=C(O)c1ccc(CN2C(=O)C3(COc4cc5c(cc43)OCCO5)c3ccccc32)cc1 (stereo not drawn) [Example 11.87, 4-[(2′-oxo-2,3-dihydrospiro[furo[2,3-g][1,4]benzodioxine-8,3′-indol]-1′(2′H)-yl)methyl]benzoic acid]",1 to 10 µM,234 to 237 °C,< 50%,
"CN1C(=O)C2(C(=O)N(Cc3ccccn3)c3ccccc32)c2cc3c(cc21)OCCO3 (stereo not drawn) [Example 5.19, 6-methyl-1′-(pyridin-2-ylmethyl)-2,3-dihydrospiro[1,4-dioxino[2,3-f]indole-8,3′-indole]-2′,7(1H,6H)-dione]",,87 to 89 °C,< 50%,1 to 10 µM
"Cc1c(F)cccc1NC(=O)c1ccc(CN2C(=O)C3(COc4cc5c(cc43)CCO5)c3ccccc32)cc1 (stereo not drawn) [Example 12.44, N-(3-fluoro-2-methylphenyl)-4-[(2′-oxo-5,6-dihydrospiro[benzo[1,2-b:5,4-b′]difuran-3,3′-indol]-1′(2′H)-yl)methyl]benzamide]",1 to 10 µM,143 to 144 °C,< 50%,
"Cc1nc(-c2cccc(CN3C(=O)C4(COc5cc6c(cc54)OCCO6)c4ccccc43)c2)no1 (stereo not drawn) [Example 11.83, 1′-[3-(5-methyl-1,2,4-oxadiazol-3-yl)benzyl]-2,3-dihydrospiro[furo[2,3-g][1,4]benzodioxine-8,3′-indol]-2′(1′H)-one]",0.001 to 0.1 µM,90 to 95 °C,> 50%,
"O=C1N(Cc2ncccc2C(F)(F)F)c2c(F)cccc2C12COc1cc3c(cc12)OCCO3 (stereo not drawn) [Example 8.16, 7′-fluoro-1-((3-(trifluoromethyl)pyridin-2-yl)methyl)-3,7-dihydro-2H-spiro[benzofuro[5,6-b][1,4]dioxine-8,3′-indolin]-2′-one]",,241 to 243 °C,< 50%,0.001 to 0.1 µM
"O=C1N(C(c2ccccc2)c2ccccc2)c2ccccc2C12COc1ccc(F)cc12 (stereo not drawn) [Example 2.9, 1′-(diphenylmethyl)-5-fluorospiro[1-benzofuran-3,3′-indol]-2′(1′H)-one]",,182 to 184 °C,< 50%,1 to 10 µM
"CN1CCO[C@H](CN2C(=O)[C@@]3(COc4cc5c(cc43)OCCO5)c3ccccc32)C1 [Example 11.106, (8S)-1′-{[(2S)-4-methylmorpholin-2-yl]methyl}-2,3-dihydrospiro[furo[2,3-g][1,4]benzodioxine-8,3′-indol]-2′(1′H)-one]",0.001 to 0.1 µM,85 to 90 °C,< 50%,
"Cn1c(CN2C(=O)C3(COc4cc5c(cc43)CCO5)c3ccccc32)nc2ccccc21 (stereo not drawn) [Example 9.12, 1′-[(1-methyl-1H-benzimidazol-2-yl)methyl]-5,6-dihydrospiro[benzo[1,2-b:5,4-b′]difuran-3,3′-indol]-2′(1′H)-one]",,244 to 246 °C,> 50%,0.1 to 1 µM
"Cc1noc2cc3c(cc12)C1(CO3)C(=O)N(CCC(C)C)c2ccccc21 (stereo not drawn) [Example 9.55, 3-methyl-1′-(3-methylbutyl)spiro[furo[3,2-f][1,2]benzisoxazole-5,3′-indol]-2′(1′H)-one]",0.001 to 0.1 µM,135 to 138 °C,> 50%,
"O=C1N(Cc2cccc(-c3noc(C(F)(F)F)n3)c2)c2ccccc2C12COc1cc3c(cc12)CCO3 (stereo not drawn) [Example 11.28, 1′-{3-[5-(trifluoromethyl)-1,2,4-oxadiazol-3-yl]benzyl}-5,6-dihydrospiro[benzo[1,2-b:5,4-b′]difuran-3,3′-indol]-2′(1′H)-one]",0.1 to 1 µM,182 to 188 °C,> 50%,
"Cc1ccc(NC(=O)c2ccc(CN3C(=O)C4(COc5cc6c(cc54)CCO6)c4ccccc43)cc2)c(C)c1 (stereo not drawn) [Example 12.37, N-(2,4-dimethylphenyl)-4-[(2′-oxo-5,6-dihydrospiro[benzo[1,2-b:5,4-b′]difuran-3,3′-indol]-1′(2′H)-yl)methyl]benzamide]",0.1 to 1 µM,249 to 251 °C,< 50%,
"Cc1cc2c(cc1C)C1(CO2)C(=O)N(CC2CCOCC2)c2ccccc21 (stereo not drawn) [Example 9.27, 5,6-dimethyl-1′-(tetrahydro-2H-pyran-4-ylmethyl)spiro[1-benzofuran-3,3′-indol]-2′(1′H)-one]",,199 to 201 °C,> 50%,1 to 10 µM
"NC(=O)c1cccc(CN2C(=O)C3(COc4cc5c(cc43)OCCO5)c3ccccc32)c1 (stereo not drawn) [Example 12.61, 3-[(2′-oxo-2,3-dihydrospiro[furo[2,3-g][1,4]benzodioxine-8,3′-indol]-1′(2′H)-yl)methyl]benzamide]",0.1 to 1 µM,130 to 135 °C,> 50%,
"CN(C)c1ccc(-c2cccc3c2C2(COc4cc5c(cc42)CCO5)C(=O)N3Cc2ccc(C(F)(F)F)o2)cn1 (stereo not drawn) [Example 16.11, 4′-[6-(dimethylamino)pyridin-3-yl]-1′-{[5-(trifluoromethyl)furan-2-yl]methyl}-5,6-dihydrospiro[benzo[1,2-b:5,4-b′]difuran-3,3′-indol]-2′(1′H)-one]",0.1 to 1 µM,223 to 225 °C,> 50%,
"O=C1N(C(c2ccccc2)c2ccccc2)c2ccccc2C12COc1cc(F)c(F)cc12 (stereo not drawn) [Example 2.61, 1′-(diphenylmethyl)-5,6-difluorospiro[1-benzofuran-3,3′-indol]-2′(1′H)-one]",,213 to 216 °C,< 50%,≥ 10 µM
"O=C1N(Cc2ccc(OCc3ccccc3)cn2)c2ccccc2C12COc1ccc3nonc3c12 (stereo not drawn) [Example 9.67, 1-{[5-(benzyloxy)pyridin-2-yl]methyl}spiro[furo[3,2-e][2,1,3]benzoxadiazole-8,3′-indol]-2′(1′H)-one]",0.1 to 1 µM,209 to 212 °C,< 50%,
"O=C1N(Cc2cnc(N3CCCCC3)s2)c2ccccc2C12COc1cc3c(cc12)OCO3 (stereo not drawn) [Example 11.3, 1′-[(2-piperidin-1-yl-1,3-thiazol-5-yl)methyl]spiro[furo[2,3-f][1,3]benzodioxole-7,3′-indol]-2′(1′H)-one]",0.1 to 1 µM,195 to 197 °C,> 50%,
"Nc1noc2cc3c(cc12)C1(CO3)C(=O)N(C[C@H]2CCCO2)c2ccccc21 (stereo partly drawn) [Example 44.2, 3-amino-1′-[(2R)-tetrahydrofuran-2-ylmethyl]spiro[furo[3,2-f][1,2]benzisoxazole-5,3′-indol]-2′(1′H)-one]",1 to 10 µM,116 to 119 °C,< 50%,
"CN1CCC(CN2C(=O)C3(COc4cc5c(cc43)CCO5)c3ccccc32)CC1 (stereo not drawn) [Example 11.10, 1′-[(1-methylpiperidin-4-yl)methyl]-5,6-dihydrospiro[benzo[1,2-b:5,4-b′]difuran-3,3′-indol]-2′(1′H)-one]",≥ 10 µM,155 to 158 °C,> 50%,
"O=C1N(Cc2nnc(-c3ccccc3)o2)c2ccccc2C12COc1cc3c(cc12)OCO3 (stereo not drawn) [Example 6.6, 1′-[(5-phenyl-1,3,4-oxadiazol-2-yl)methyl]spiro[furo[2,3-f][1,3]benzodioxole-7,3′-indol]-2′(1′H)-one]",,158 to 160 °C,> 50%,0.1 to 1 µM
"COc1cc2c(cc1F)C1(CO2)C(=O)Nc2ccccc21 (stereo not drawn) [Example 3.7, 5-fluoro-6-methoxyspiro[1-benzofuran-3,3′-indol]-2′(1′H)-one]",,222 to 225 °C,< 50%,1 to 10 µM
"Cl.O=C1N(CC2CCNCC2)c2ccccc2C12COc1cc(F)c(F)cc12 (stereo not drawn) [Example 11.111, 5,6-difluoro-1′-(piperidin-4-ylmethyl)spiro[1-benzofuran-3,3′-indol]-2′(1′H)-one hydrochloride]",0.001 to 0.1 µM,> 200 °C,> 50%,
"O=C1N(Cc2ccc(C(F)(F)F)o2)c2cccc(Cl)c2C12COc1cc3c(cc12)CCO3 (stereo not drawn) [Example 4.33, 4′-chloro-1′-{[5-(trifluoromethyl)furan-2-yl]methyl}-5,6-dihydrospiro[benzo[1,2-b:5,4-b′]difuran-3,3′-indol]-2′(1′H)-one]",,166 to 169 °C,> 50%,0.001 to 0.1 µM
"CCC(CC)CNC(=O)c1ccc(CN2C(=O)C3(COc4cc5c(cc43)CCO5)c3ccccc32)cc1 (stereo not drawn) [Example 12.45, N-(2-ethylbutyl)-4-[(2′-oxo-5,6-dihydrospiro[benzo[1,2-b:5,4-b′]difuran-3,3′-indol]-1′(2′H)-yl)methyl]benzamide]",1 to 10 µM,211 to 213 °C,< 50%,
